Series [1] concerns the target Gap junction beta-2 protein (Homo sapiens) (UniProt P29033). The series can be described thus: Inhibition of recombinant human Cx26 expressed in Escherichia coli LB2003 assessed as reduction in cell growth measured after 18 hrs.
In series [2] the test system is HeLa. Description: Cytotoxicity against human HeLa cells assessed as reduction in cell viability at 100 ug/ml after 24 hrs by MTT assay relative to control. The format is cell-based. Background: Tetrazolium dyes change colour on reduction, which living cells bring about.
The next series deals with Cx26. The series can be described thus: Ratio of compound effect for cytotoxicity against human HeLa cells to IC50 for recombinant human Cx26 expressed in Escherichia coli LB2003. The class given is toxicity.
The subject of series [3] is HeLa. The series can be described thus: Cytotoxicity against human HeLa cells assessed as reduction in cell viability up to 100 ug/ml after 24 hrs by MTT assay. The format is cell-based.
The next series relates to Staphylococcus aureus. Description: Toxicity against Staphylococcus aureus ATCC 25923 measured after 18 to 24 hrs. The class given is organism-based. To be noted: in vivo.
The target of series [4] is Gap junction beta-2 protein (Homo sapiens) (UniProt P29033). The series can be described thus: Inhibition of recombinant human Cx26 expressed in Escherichia coli LB2003 assessed as reduction in cell growth at 100 uM measured after 18 hrs.

Values after ≈ are worked out from the molar mass of the structure shown. Active and inactive are the calls of the source. No cut-off for these calls is given here. Bounds are passed on as bounds.

We go through 15 compounds from ChEMBL document CHEMBL4196120, “Inhibition of Connexin Hemichannels by New Amphiphilic Aminoglycosides without Antibiotic Activity” (ACS Med Chem Lett, 2018).

Consider `NC[C@H]1O[C@H](O[C@H]2[C@H](O)[C@@H](O[C@@H]3O[C@H](COCc4ccc5ccccc5c4)[C@@H](OCc4ccc5ccccc5c4)[C@H](N)[C@H]3O)[C@H](N)C[C@@H]2N)[C@H](O)[C@@H](O)[C@@H]1O`, for which the Imax in series [1] stood at 94%. Besides, the Activity with HeLa [2] lay within 40 to 60%. Besides, the selectivity ratio in the series on Cx26 was ≤ 20.

For the compound `CO[C@@H]1[C@@H](O[C@@H]2O[C@H](COCc3ccccc3)[C@@H](OCc3ccccc3)[C@H](N)[C@H]2OC)[C@H](N)C[C@H](N)[C@H]1O[C@H]1O[C@H](CN)[C@@H](OC)[C@H](OC)[C@H]1OC`, the Activity entry in the series with HeLa [3] was “Non-Toxic”. In addition, in series [1], the Imax was 99%.

On to `NC[C@H]1O[C@H](O[C@H]2[C@H](O)[C@@H](O[C@@H]3O[C@H](COCc4cccc5ccccc45)[C@@H](OCc4cccc5ccccc45)[C@H](N)[C@H]3O)[C@H](N)C[C@@H]2N)[C@H](O)[C@@H](O)[C@@H]1O`, for which the Activity result with HeLa [3] was “Non-Toxic”. Also, the MIC against Staphylococcus aureus is 64 µg/mL (≈ 83.7 µM). Further, in series [1], the Imax is 94%.

For the compound `NC[C@H]1O[C@H](O[C@H]2[C@H](O)[C@@H](O[C@@H]3O[C@H](COCc4ccc(F)cc4)[C@@H](OCc4ccc(F)cc4)[C@H](N)[C@H]3O)[C@H](N)C[C@@H]2N)[C@H](O)[C@@H](O)[C@@H]1O`, in series [1], the Imax was 94%. In the series with HeLa [2], the Activity lay within 40 to 60%. Further, in the series on Cx26, the selectivity ratio is ≤ 20.

Consider `CO[C@@H]1[C@@H](O[C@@H]2O[C@H](CO)[C@@H](O)[C@H](N)[C@H]2OC)[C@H](N)C[C@H](N)[C@H]1O[C@H]1O[C@H](CN)[C@@H](OC)[C@H](OC)[C@H]1OC`, for which, in series [4], the inhibition result is “inactive”. For the same compound, in the series with HeLa [3], the Activity entry is recorded as “Non-Toxic”.

As for `NC[C@H]1O[C@H](O[C@H]2[C@H](O)[C@@H](O[C@@H]3O[C@H](COCc4ccccc4)[C@@H](OCc4ccccc4)[C@H](N)[C@H]3O)[C@H](N)C[C@@H]2N)[C@H](O)[C@@H](O)[C@@H]1O`, the Activity entry in the series on HeLa [3] was “Non-Toxic”. Moreover, the Imax in series [1] is 99%.

As for `NC[C@H]1O[C@H](O[C@H]2[C@H](O)[C@@H](O[C@@H]3O[C@H](COCc4ccc(Cl)cc4)[C@@H](OCc4ccc(Cl)cc4)[C@H](N)[C@H]3O)[C@H](N)C[C@@H]2N)[C@H](O)[C@@H](O)[C@@H]1O`, the Activity entry in the series on HeLa [3] is recorded as “Non-Toxic”. Besides, in series [1], the Imax is 94%.

Turning to `CCCCOC[C@H]1O[C@@H](O[C@@H]2[C@@H](O)[C@H](O[C@H]3O[C@H](CN)[C@@H](O)[C@H](O)[C@H]3O)[C@@H](N)C[C@H]2N)[C@H](O)[C@@H](N)[C@@H]1OCCCC`, the Activity entry with HeLa [3] was “Non-Toxic”. The Imax in series [1] amounted to 99%.

Take `CCCCCCCCOC[C@H]1O[C@@H](O[C@@H]2[C@@H](O)[C@H](O[C@H]3O[C@H](CN)[C@@H](O)[C@H](O)[C@H]3O)[C@@H](N)C[C@H]2N)[C@H](O)[C@@H](N)[C@@H]1OCCCCCCCC`: the Activity result in the series with HeLa [3] is recorded as “Non-Toxic”. Also, the Imax in series [1] stood at 99%.

In turn, `NC[C@H]1O[C@H](O[C@H]2[C@H](O)[C@@H](O[C@@H]3O[C@H](COCc4cccc(-c5ccccc5)c4)[C@@H](OCc4cccc(-c5ccccc5)c4)[C@H](N)[C@H]3O)[C@H](N)C[C@@H]2N)[C@H](O)[C@@H](O)[C@@H]1O` yielded an MIC against Staphylococcus aureus of 16 µg/mL (≈ 19.6 µM). Moreover, the Imax in series [1] was 94%. Also, the Activity in the series on HeLa [2] lay in the range of 40 to 60%. Moreover, the selectivity ratio in the series with Cx26 is ≤ 20.

Take `COc1ccc(COC[C@H]2O[C@@H](O[C@@H]3[C@@H](O)[C@H](O[C@H]4O[C@H](CN)[C@@H](O)[C@H](O)[C@H]4O)[C@@H](N)C[C@H]3N)[C@H](O)[C@@H](N)[C@@H]2OCc2ccc(OC)cc2)cc1`: the Activity entry in the series with HeLa [3] is recorded as “Non-Toxic”. Moreover, in series [1], the Imax came to 94%.

With `CCCCCCCCCOC[C@H]1O[C@@H](O[C@@H]2[C@@H](O)[C@H](O[C@H]3O[C@H](CN)[C@@H](O)[C@H](O)[C@H]3O)[C@@H](N)C[C@H]2N)[C@H](O)[C@@H](N)[C@@H]1OCCCCCCCCC`, the Activity entry in the series on HeLa [3] is recorded as “Non-Toxic”. Besides, the Imax in series [1] was 99%.

In the case of `Cc1ccc(COC[C@H]2O[C@@H](O[C@@H]3[C@@H](O)[C@H](O[C@H]4O[C@H](CN)[C@@H](O)[C@H](O)[C@H]4O)[C@@H](N)C[C@H]3N)[C@H](O)[C@@H](N)[C@@H]2OCc2ccc(C)cc2)cc1`, the Activity entry with HeLa [3] is on record as “Non-Toxic”. For the same compound, the Imax in series [1] was 94%.

`CCCCCCOC[C@H]1O[C@@H](O[C@@H]2[C@@H](O)[C@H](O[C@H]3O[C@H](CN)[C@@H](O)[C@H](O)[C@H]3O)[C@@H](N)C[C@H]2N)[C@H](O)[C@@H](N)[C@@H]1OCCCCCC`: the Activity result in the series with HeLa [3] is “Non-Toxic”. Besides, the Imax in series [1] came to 99%.

Regarding `CCCCCCO[C@H]1[C@H](N)[C@@H](O)[C@H](O[C@@H]2[C@@H](O)[C@H](O[C@H]3O[C@H](CN)[C@@H](O)[C@H](O)[C@H]3O)[C@@H](N)C[C@H]2N)O[C@@H]1CO`, the Activity entry in the series with HeLa [3] was “Non-Toxic”. Besides, in series [1], the Imax was 99%.
